These results are taken from patent US8716292B2, “Riminophenazines with 2-(heteroaryl)amino substituents and their anti-microbial activity” (priority 2010, dated 2014).

The assay relates to Mycobacterium tuberculosis H37Rv strains. In words: In vitro assay for antimicrobial susceptibility (microplate Alamar blue MIC). Type of assay: cell-based. As to conditions: for MIC: Mycobacterium tuberculosis, H37RV, read-out: MIC (μg/mL) against H37Rv.
Setting [1] is: in vitro, Mycobacterium tuberculosis H37Rv strains.

In brackets after ≈: the same amount, converted by molar mass. Read-outs that look alike come from different tables or passages of the source.

For the molecule `c1ccc(-n2c3c/c(=N\C4CCN(C5CCCC5)CC4)c(Nc4cccnc4)cc-3nc3ccccc32)cc1` [TBI-060, 5-Phenyl-3-(N-cyclopentyl-4-piperidyl)imino-2-(3-pyridyl)amino-3,5-dihydrophenazine], the MIC under setting [1] worked out at 1 µg/mL (≈ 1.94 µM).
Turning to `CC(C)/N=c1\cc2n(-c3ccc(F)c(F)c3)c3ccccc3nc-2cc1Nc1ncccc1C#N` [TBI-1438, 5-(3,4-Difluorophenyl)-3-(1-methylethyl)imino-2-(3-cyano-2-pyridyl)amino-3,5-dihydrophenazine], the MIC (7H9, Alamar blue, inhibition ≧90%) stood at 0.053 µg/mL (≈ 0.114 µM).
With `COc1ccc(Nc2cc3nc4ccccc4n(-c4ccc(F)cc4)c-3c/c2=N\C2CC2)cn1` [TBI-931, 5-(4-Fluorophenyl)-3-cyclopropyimino-2-(6-methoxy-3-pyridyl)amino-3,5-dihydrophenazine], under setting [1], the MIC was found to be 0.238 µg/mL (≈ 0.527 µM).
In the case of `COc1ncccc1Nc1cc2nc3ccccc3n(-c3ccc(Cl)c(Cl)c3)c-2c/c1=N\C1CCOCC1` [TBI-361, 5-(3,4-Dichlorophenyl)-3-(4-tetrahydropyranyl)imino-2-(2-methoxy-3-pyridyl)amino-3,5-dihydrophenazine], under setting [1], the MIC amounted to 0.08 µg/mL (≈ 0.146 µM).
Turning to `COc1ccc2nc3cc(Nc4cccnc4OC)/c(=N/C4CCOCC4)cc-3n(-c3ccc(Cl)cc3)c2c1` [TBI-942, 7-Methoxy-5-(4-chlorophenyl)-3-(4-tetrahydropyranyl)imino-2-(2-methoxy-3-pyridyl)amino-3,5-dihydrophenazine], the MIC under setting [1] is 0.125 µg/mL (≈ 0.231 µM).
Still for that read-out and setting: in the case of `Cc1ccc(-n2c3c/c(=N\C4CCC4)c(Nc4cccnc4)cc-3nc3ccccc32)cc1` [TBI-345, 5-(4-Methylphenyl)-3-cyclobutylimino-2-(3-pyridyl)amino-3,5-dihydrophenazine] it was 0.221 µg/mL (≈ 0.512 µM); in that of `COc1ncccc1Nc1cc2nc3ccccc3n(-c3ccc(C)cc3)c-2c/c1=N\C1CCC(OC)CC1` (stereo not drawn) [TBI-309, 5-(4-Methylphenyl)-3-(4-methoxycyclohexyl)imino-2-(2-methoxy-3-pyridyl)amino-3,5-dihydrophenazine], 0.06 µg/mL (≈ 0.115 µM).
For `COc1ncccc1Nc1cc2nc3ccccc3n(-c3ccc(F)c(F)c3)c-2c/c1=N\C1CCOCC1` [TBI-1428, 5-(3,4-Difluorophenyl)-3-(4-tetrahydropyranyl)imino-2-(2-methoxy-3-pyridyl)amino-3,5-dihydrophenazine], the “MIC (μg/mL) against H37Rv” value under setting [1] was 0.054 µg/mL (≈ 0.105 µM).
For the molecule `Cc1ncccc1Nc1cc2nc3ccccc3n(-c3ccc(F)cc3)c-2c/c1=N\C1CCCCC1` [TBI-1023, 5-(4-Fluorophenyl)-3-cyclohexylimino-2-(2-methyl-3-pyridyl)amino-3,5-dihydrophenazine], the MIC under setting [1] stood at 0.0075 µg/mL (≈ 0.0157 µM).
The same measure, in the same setting: in the case of `COC1CCC(/N=c2\cc3n(-c4ccc(F)cc4)c4ccccc4nc-3cc2Nc2ccc(C)nc2)CC1` (stereo not drawn) [TBI-1001, 5-(4-Fluorophenyl)-3-(4-methoxycyclohexyl)imino-2-(6-methyl-3-pyridyl)amino-3,5-dihydrophenazine] it was 0.06 µg/mL (≈ 0.118 µM); in that of `COc1ncccc1Nc1cc2nc3ccccc3n(-c3ccc(Cl)c(Cl)c3)c-2c/c1=N\C1CCC1` [TBI-946, 5-(3,4-Dichlorophenyl)-3-cyclobutylimino-2-(2-methoxy-3-pyridyl)amino-3,5-dihydrophenazine], 0.06 µg/mL (≈ 0.116 µM).
On the same count and under the same terms, in the case of `COc1ncccc1Nc1cc2nc3cc(F)ccc3n(-c3ccc(Cl)cc3)c-2c/c1=N\C(C)C` [TBI-929, 8-Fluoro-5-(4-chlorophenyl)-3-(1-methylethyl)imino-2-(2-methoxy-3-pyridyl)amino-3,5-dihydrophenazine] it was 0.125 µg/mL (≈ 0.256 µM); in that of `COC1CCC(/N=c2\cc3n(-c4cccc(OC(F)(F)F)c4)c4ccccc4nc-3cc2Nc2cccnc2)CC1` (stereo not drawn) [TBI-1024, 5-(3-Trifluoromethoxyphenyl)-3-(4-methoxycyclohexyl)imino-2-(3-pyridyl)amino-3,5-dihydrophenazine], 0.112 µg/mL (≈ 0.2 µM); in that of `Cc1ccc(Nc2cc3nc4ccccc4n(-c4cccc(Cl)c4)c-3c/c2=N\C2CCOCC2)cn1` [TBI-80A, 5-(3-Chlorophenyl)-3-(4-tetrahydropyranyl)imino-2-(6-methyl-3-pyridyl)amino-3,5-dihydrophenazine], 0.125 µg/mL (≈ 0.252 µM).
The same measure, in the same setting: to `O[C@H]1CC[C@H](/N=c2\cc3n(-c4cccc(Cl)c4)c4ccccc4nc-3cc2Nc2cccnc2)CC1` [TBI-811, 5-(3-Chlorophenyl)-3-(1′,4′-trans-4-hydroxycyclohexyl)imino-2-(3-pyridyl)amino-3,5-dihydrophenazine] belongs 0.5 µg/mL (≈ 1.01 µM).
As to `COc1ncccc1Nc1cc2nc3ccccc3n(-c3ccccc3)c-2c/c1=N\C1CCOCC1` [TBI-066, 5-Phenyl-3-(4-tetrahydropyranyl)imino-2-(2-methoxy-3-pyridyl)amino-3,5-dihydrophenazine], the MIC under setting [1] was 0.026 µg/mL (≈ 0.0544 µM).
Same read-out and setting: in the case of `COc1ncccc1Nc1cc2nc3ccccc3n(-c3ccc(C(F)(F)F)cc3)c-2c/c1=N\C1CCC(O)CC1` (stereo not drawn) [TBI-719, 5-(4-Trifluoromethylphenyl)-3-(4-hydroxycyclohexyl)imino-2-(2-methoxy-3-pyridyl)amino-3,5-dihydrophenazine] it was 0.204 µg/mL (≈ 0.365 µM); in that of `Cc1ccc(Nc2cc3nc4ccc(F)cc4n(-c4ccc(Cl)cc4)c-3c/c2=N\C(C)C)cn1` [TBI-914, 7-Fluoro-5-(4-chlorophenyl)-3-(1-methylethyl)imino-2-(6-methyl-3-pyridyl)amino-3,5-dihydrophenazine], greater than 0.5 µg/mL; in that of `COc1ccc(Nc2cc3nc4ccccc4n(-c4ccccc4)c-3c/c2=N\C2CCC(OC)CC2)cn1` (stereo not drawn) [TBI-514, 5-Phenyl-3-(4-methoxycyclohexyl)imino-2-(6-methoxy-3-pyridyl)amino-3,5-dihydrophenazine], 0.243 µg/mL (≈ 0.481 µM).
As to `Cc1cncc(Nc2cc3nc4ccccc4n(-c4ccc(F)cc4)c-3c/c2=N\C2CCC2)c1` [TBI-1031], under setting [1], the MIC is 0.028 µg/mL (≈ 0.0623 µM).
Still for that read-out and setting: to `CC(=O)Nc1ccc(Nc2cc3nc4ccccc4n(-c4ccc(C(F)(F)F)cc4)c-3c/c2=N\C2CCC(O)CC2)cn1` (stereo not drawn) [TBI-714, 5-(4-Trifluoromethylphenyl)-3-(4-hydroxycyclohexyl)imino-2-(6-acetamino-3-pyridyl)amino-3,5-dihydrophenazine] belongs 0.686 µg/mL (≈ 1.17 µM); to `COc1ncccc1Nc1cc2nc3ccc(F)cc3n(-c3ccc(Cl)c(Cl)c3)c-2c/c1=N\C1CC1` [TBI-885, 7-Fluoro-5-(3,4-dichlorophenyl)-3-cyclopropylimino-2-(2-methoxy-3-pyridyl)amino-3,5-dihydrophenazine], 0.06 µg/mL (≈ 0.115 µM); to `COCC(COC)/N=c1\cc2n(-c3ccc(Cl)c(Cl)c3)c3ccccc3nc-2cc1Nc1cccnc1OC` [TBI-375, 5-(3,4-Dichlorophenyl)-3-(1,3-dimethoxyisopropyl)imino-2-(2-methoxy-3-pyridyl)amino-3,5-dihydrophenazine], 0.125 µg/mL (≈ 0.221 µM).
Same read-out and setting: in the case of `Cc1ccc(Nc2cc3nc4ccccc4n(-c4ccc(Br)cc4)c-3c/c2=N\C2CCOCC2)cn1` [TBI-504, 5-(4-Bromophenyl)-3-(4-tetrahydropyranyl)imino-2-(6-methyl-3-pyridyl)amino-3,5-dihydrophenazine] it was 0.044 µg/mL (≈ 0.0814 µM); in that of `Fc1ccc(-n2c3c/c(=N\C4CC4)c(Nc4cccnc4)cc-3nc3ccccc32)cc1` [TBI-922, 5-(4-Fluorophenyl)-3-cyclopropylimino-2-(3-pyridyl)amino-3,5-dihydrophenazine], 0.012 µg/mL (≈ 0.0285 µM); in that of `Fc1ccc(-n2c3c/c(=N\C4CCC4)c(Nc4cccnc4)cc-3nc3ccccc32)cc1F` [TBI-526, 5-(3,4-Difluorophenyl)-3-cyclobutylimino-2-(3-pyridyl)amino-3,5-dihydrophenazine], 0.079 µg/mL (≈ 0.174 µM).
Same read-out and setting: in the case of `COc1ncccc1Nc1cc2nc3ccccc3n(-c3ccc(Br)cc3)c-2c/c1=N\C1CCCCC1` [TBI-517, 5-(4-Bromophenyl)-3-cyclohexylimino-2-(2-methoxy-3-pyridyl)amino-3,5-dihydrophenazine] it was 0.029 µg/mL (≈ 0.0523 µM); in that of `COc1ncccc1Nc1cc2nc3ccc(F)cc3n(-c3ccc(Cl)c(Cl)c3)c-2c/c1=N\C1CCC1` [TBI-886, 7-Fluoro-5-(3,4-dichlorophenyl)-3-cyclobutylimino-2-(2-methoxy-3-pyridyl)amino-3,5-dihydrophenazine], 0.06 µg/mL (≈ 0.112 µM); in that of `COc1ccc(Nc2cc3nc4ccccc4n(-c4ccccc4)c-3c/c2=N\C2CCCCC2)cn1` [TBI-513, 5-Phenyl-3-cyclohexylimino-2-(6-methoxy-3-pyridyl)amino-3,5-dihydrophenazine], 0.244 µg/mL (≈ 0.513 µM).
Turning to `COc1ncccc1Nc1cc2nc3cc(F)ccc3n(-c3ccc(Cl)c(Cl)c3)c-2c/c1=N\C1CC1` [TBI-875, 8-Fluoro-5-(3,4-dichlorophenyl)-3-cyclopropylimino-2-(2-methoxy-3-pyridyl)amino-3,5-dihydrophenazine], the MIC under setting [1] amounted to 0.047 µg/mL (≈ 0.0903 µM).
On the same count and under the same terms, in the case of `COC1CCC(/N=c2\cc3n(-c4ccc(Br)cc4)c4ccccc4nc-3cc2Nc2ccc(C)nc2)CC1` (stereo not drawn) [TBI-503, 5-(4-Bromophenyl)-3-(4-methoxycyclohexyl)imino-2-(6-methyl-3-pyridyl)amino-3,5-dihydrophenazine] it was 0.097 µg/mL (≈ 0.171 µM).
Take `COc1ncccc1Nc1cc2nc3ccccc3n(-c3ccc(Cl)cc3Cl)c-2c/c1=N\C(C)C` [TBI-369, 5-(2,4-Dichlorophenyl)-3-(1-methylethyl)imino-2-(2-methoxy-3-pyridyl)amino-3,5-dihydrophenazine]: the MIC under setting [1] stood at 0.104 µg/mL (≈ 0.206 µM).
In the case of `COCC(COC)/N=c1\cc2n(-c3ccc(OC(F)(F)F)cc3)c3ccccc3nc-2cc1Nc1cccnc1OC` [TBI-372], under setting [1], the MIC was 0.098 µg/mL (≈ 0.169 µM).
On the same count and under the same terms, in the case of `Cc1ncccc1Nc1cc2nc3ccccc3n(-c3ccc(Br)cc3)c-2c/c1=N\C(C)C` [TBI-507, 5-(4-Bromophenyl)-3-(1-methylethyl)imino-2-(2-methyl-3-pyridyl)amino-3,5-dihydrophenazine] it was 0.062 µg/mL (≈ 0.124 µM); in that of `COc1ncccc1Nc1cc2nc3ccccc3n(-c3ccc(C)cc3)c-2c/c1=N\C1CCC(O)CC1` (stereo not drawn) [TBI-332, 5-(4-Methylphenyl)-3-(4-hydroxycyclohexyl)imino-2-(2-methoxy-3-pyridyl)amino-3,5-dihydrophenazine], 0.294 µg/mL (≈ 0.581 µM).
Same read-out and setting: to `Cc1ccc(Nc2cc3nc4ccccc4n(-c4ccc(Br)cc4)c-3c/c2=N\C2CC2)cn1` [TBI-100, 5-(4-Bromophenyl)-3-cyclopropylimino-2-(6-methyl-3-pyridyl)amino-3,5-dihydrophenazine] belongs 0.011 µg/mL (≈ 0.0222 µM).
